From PMC11873638 (Acta Pharmaceutica Sinica. B, 2024)
Each block holds one compound with its values, some of them ahead of it.

How the values were obtained:
[1] = molecular target: T1, HDB-EtCl O-dechloroethylation (CYP1A1) in human liver microsomes (Homo sapiens, UniProt P04798); test: Chemical inhibition assay of HDB-EtCl O-dechloroethylation in HLMs; details: ABT 500 μmol/L, resveratrol 100 μmol/L, others 1-10 μmol/L
T1 sequence (P04798 1-512): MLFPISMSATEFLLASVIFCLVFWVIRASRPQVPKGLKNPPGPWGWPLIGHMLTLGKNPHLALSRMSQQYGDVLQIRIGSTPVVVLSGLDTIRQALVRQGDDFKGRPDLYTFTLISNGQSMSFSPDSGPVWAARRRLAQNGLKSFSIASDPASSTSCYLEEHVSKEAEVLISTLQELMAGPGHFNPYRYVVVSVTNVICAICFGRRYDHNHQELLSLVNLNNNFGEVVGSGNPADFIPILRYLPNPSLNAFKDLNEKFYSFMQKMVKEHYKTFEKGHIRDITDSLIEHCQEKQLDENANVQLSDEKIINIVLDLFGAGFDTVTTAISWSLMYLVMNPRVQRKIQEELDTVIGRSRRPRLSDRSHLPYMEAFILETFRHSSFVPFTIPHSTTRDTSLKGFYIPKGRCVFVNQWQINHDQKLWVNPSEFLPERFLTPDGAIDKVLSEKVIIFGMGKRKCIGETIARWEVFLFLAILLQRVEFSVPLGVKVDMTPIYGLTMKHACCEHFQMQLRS

LPS-induced ALI mice = test: LPS-induced acute lung injury in mice; format: in vivo, mouse
[2] = test system: DSS-induced ulcerative colitis mice; test: DSS-induced ulcerative colitis in mice; format: in vivo, mouse
[3] = test system: CYP1A1 in Caco2, BEAS-2B, H292, and HepG2 cells; test: Functional imaging of CYP1A1 in living cells; format: cell-based, human; details: 100 μmol/L, 1 h pre-incubation
[4] = test system: Caco2, BEAS-2B, H292, and HepG2 cells; test: Cytotoxicity assays of probe, metabolite and inhibitor; format: cell-based, human; details: all tested mammalian cells

inhibition of HDB-EtCl O-dechloroethylation in HLMs [1]: completely blocked
Structure (SMILES): Nn1nnc2ccccc21 [ABT, 1-aminobenzotriazole]

Structure (SMILES): C[C@@H]1C[C@H]2[C@@H]3CCC4=CC(=O)C=C[C@]4(C)[C@@]3(F)[C@@H](O)C[C@]2(C)[C@@]1(O)C(=O)CO [Dex, dexamethasone]
lung injury scores (LPS-induced ALI mice; LAC-7 20 and 40 mg/kg, Dex 5 mg/kg): significantly reduce | Occludin immunofluorescence intensity in lung (LPS-induced ALI mice; mouse, in vivo): enhanced | ZO-1 immunofluorescence intensity in lung (LPS-induced ALI mice; oral administration): significantly increased | total cell count in BALF (LPS-induced ALI mice; vs LPS-induced ALI mice): significantly decreased

Structure (SMILES): O=C(O)c1cc(/N=N/c2ccc(S(=O)(=O)Nc3ccccn3)cc2)ccc1O [SASP, salazosulfapyridine]
elevated IL-1β, TNF-α, IL-6, IFN-γ in intestinal tissues ([2]; ELISA, oral administration): effectively mitigated | colon histopathological abnormities (H&E) ([2]; LAC-7 20 and 40 mg/kg, SASP 200 mg/kg): largely restored | shortening of colon length by DSS ([2]; LAC-7 20 and 40 mg/kg, SASP 200 mg/kg, oral): significantly reversed | expression of tight junction proteins Occludin and ZO-1 in intestine ([2]; immunofluorescence): significantly increased

blocking of HDB-EtCl red-channel fluorescent signals in cells [3]: completely blocked | inhibition of HDB-EtCl O-dechloroethylation in HLMs [1]: completely blocked
Structure (SMILES): Oc1ccc(/C=C/c2cc(O)cc(O)c2)cc1 [resveratrol]
cytotoxicity [4]: weak cytotoxicity
